Patent US6894050B2, “5-HT receptor ligands and uses thereof” (Pfizer Inc., priority 2001, dated 2005)
Counter-ions that a name gives are not always drawn. Blank lines part the entries; values can stand above or below the compound they belong to.

Key:
[1] = system: anaesthetised rabbit model of erection; assay: Penile ICP in anaesthetised rabbit model of erection, combination with PDE5 inhibitor; type: in vivo; conditions: 5-10 mg/kg s.c. with selective PDE5 inhibitor 1 mg/kg i.v.
Protocol: The effects of concomitant administration of compound(s) of formula (I) in combination with a PDE5 inhibitor on the penile intracavernosal pressure (ICP) in an anaesthetised rabbit model of erection can be measured according to the following protocol.
Male New Zealand rabbits (˜2.5 kg) are pre-medicated with a combination of Medetomidine (Domitor®) 0.5 ml/kg inramuscularly (i.m.), and Ketamine (Vetalar®) 0.25 ml/kg i.m. whilst maintaining oxygen intake via a face mask. The rabbits are tracheotomised using a Portex™ uncuffed endotracheal tube 3 ID (internal diameter), connected to ventilator and maintained at a ventilation rate of 30-40 breaths per minute, with an approximate tidal volume of 18-20 ml, and a maximum airway pressure of 10 cm H2O. Anaesthesia was then switched to Isoflurane® and ventilation continued with O2 at 2 liters/min. The right marginal ear vein was cannulated using a 23G or 24G catheter, and Lactated Ringer solution perfused at 0.5 ml/min. […]
The left groin area of the rabbit was shaved and a vertical incision was made approximately 5 cm in length along the thigh. […] Systolic and diastolic pressures were measured, and the mean arterial pressure calculated using the formula (diastolic×2+systolic)÷3. Heart rate was measured via the pulse oxymeter and Po-ne-mah data acquisition software system (Ponemah Physiology Platform, Gould Instrument Systems Inc). […]

conscious male rat = assay: Intracavernosal pressure (ICP) by telemetric recording in the conscious male rat; type: in vivo
Description: ICP Protocol: Intra cavernosal pressure (ICP) can be measured in the conscious rat by means of telemetric recording. A catheter is surgically implanted into the corpus cavernosum. The end of the catheter is linked to a device, which senses, processes, and transmits information digitally from within the animal. A receiver converts the radio-frequency signal from the implant to a digital pulse stream that is readable by a data collection system. The PC-based system collects telemetred data from the animal.
Surgery:—Induce and maintain general anaesthesia using 5% Isoflurane® in a carrier gas of 0.5 L/min oxygen and 1 L/min nitrous oxide to induce anaesthesia, reducing to 2% Isoflurane for maintenance anaesthesia. Administer 5 mg/kg subcutaneously (s.c.) Carprofen (Rimadyl® Large Animal Injection, 50 mg/ml, Pfizer Animal Health) at induction of anaesthesia, at end of day of surgery and on the morning of first day post-surgery to minimise pain and discomfort.
Implantation of corpus cavernosal probe:—Shave the skin of the ventral abdomen and extend to include the area around the penis and ventral scrotum. Clean and disinfect the shaved area. Place the rat in dorsal recumbency. Make a mid-line incision from the external base of the penis, running caudally for approximately 2 cm. Locate and expose the internal structure of the penis and identify the corpus cavernosum. Make a mid-line laparotomy, approximately 4 cm in length to access the abdominal cavity. Pierce the abdominal wall via the caudal incision with a suitable trocar and cannula, taking care not to damage any internal organs. Place the implant body in the abdominal cavity with the catheter orientated caudally and pass the catheter tip through the body wall via the preplaced cannula. Implant used is model TA11PA-C40, 8 mm catheter, with modified 3 mm tip (Data Sciences International Inc.). Secure the implant body to the abdominal wall using non-absorbable sutures and partially close the abdominal incision. Reflect the tip of the penis cranially and retract the caudal incision to optimise the surgical field. Carefully isolate approximately 10 mm of the internal structure of the penis from the surrounding tissue. Carefully reflect the corpus spongiosum to one side to give access to the corpus cavernosum. Access the corpus cavernosum using a modified over-the-needle catheter to puncture the tunica. Introduce the catheter tip via the preplaced catheter and advance until fully inserted. Carefully remove the access catheter and apply a suitable tissue adhesive to the insertion site. Observe for leakage. Close the subcutaneous fat layer in the caudal incision before closing with an appropriate absorbable suture. Instil approximately 5 ml of warm saline through the abdominal incision and complete closure of the mid-line incision. Close the skin incision with an appropriate absorbable suture.
Postoperative care:—Measure food and water intake and monitor bodyweight daily for at least 7 days post surgery, then 2-3 times weekly. Give Lectade® (Pfizer Animal Health) in drinking water for 3 days post surgery. House rats singly, and transfer to reverse light/dark conditions 5 days post surgery. Named Veterinary Surgeon (or Deputy) to issue a certificate of fitness to continue 2 days post surgery. Start using rats experimentally 7 days post surgery.
Experimental Procedure:—Perform experiment in room with reverse light/dark conditions. […] Take baseline reading of intra cavernosal pressure (ICP) for approximately 5 minutes. […]

human 5HT2c receptor = biological target: T1, human 5HT2c receptor (Homo sapiens, UniProt P28335); assay: 5HT2c Binding Procedure (competition binding against 3H-5HT); conditions: Swiss 3T3 mouse cells transfected with human 5HT2c receptor
T1 construct: expressed in transfected cells; host or cells: Swiss 3T3 mouse cells
T1 sequence (P28335 33-458): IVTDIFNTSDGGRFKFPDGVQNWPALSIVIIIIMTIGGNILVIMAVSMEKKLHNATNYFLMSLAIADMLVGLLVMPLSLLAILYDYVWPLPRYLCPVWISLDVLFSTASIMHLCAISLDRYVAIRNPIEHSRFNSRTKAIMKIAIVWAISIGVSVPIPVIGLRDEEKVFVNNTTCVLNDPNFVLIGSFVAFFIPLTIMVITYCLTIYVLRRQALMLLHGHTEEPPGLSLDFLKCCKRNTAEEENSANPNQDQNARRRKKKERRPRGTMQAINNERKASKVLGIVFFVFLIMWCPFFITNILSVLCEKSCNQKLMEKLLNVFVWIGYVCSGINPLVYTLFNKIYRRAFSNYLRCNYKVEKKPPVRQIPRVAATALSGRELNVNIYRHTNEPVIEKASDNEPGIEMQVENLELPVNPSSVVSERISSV
Protocol: Affinity of compounds at the serotonin 5HT2c binding site was determined by competition binding in Swiss 3T3 mouse cells (available from the American Type Culture Collection (ATCC), Manassas, Va.) transfected with the human 5HT2c receptor against 3H-5HT. The method was adapted from Roth et al., J. of Pharm. And Exp. Therap., 260(3), 1362-1365 (1992). Cells were grown in DMEM high glucose medium, harvested, homogenized, centrifuged, and resuspended in 50 mM Tris-HCL. They were incubated at 37° C. for 15 minutes, centrifuged, and then resuspended into assay buffer (50 mM Tris-HCl, 4 mM CaCl2, 0.1% ascorbic acid, and 100 μM pargyline at pH 7.7) at 100 volumes per gram. Assay tubes contained 25 μL of 10 nM ^3H-5HT (1 nM final conc.), and 25 μl of vehicle (assay buffer), blank (10 μM mianserin), or test compound (10× final volume). 200 μl of tissue homogenate was added to each tube, vortexed, and incubated for 30 minutes at 37° C. Samples were then rapidly filtered under vacuum with a Skatron™ cell harvester (available from Molecular Devices Corporation, Sunnyvale, Calif.) using GF/B filters presoaked in 0.5% polyethyleneimine (PEI), and washed with 2×5 mL cold 50 mM Tris-HCl. Filter mats were removed and counted in a Wallac Betaplate counter (available from PerkinElmer Life Sciences, Gaithersburg, Md.). […]

rat 5HT2A receptor = biological target: T2, rat 5HT2A receptor (Rattus norvegicus, UniProt P14842); assay: 5HT2A Binding Procedure (competition binding using 125I-DOI); conditions: NIH 3T3 mouse cells transfected with rat 5HT2A receptor, read-out: Ki values for 5HT2a binding (upper end of range)
T2 construct: expressed in transfected cells; host or cells: NIH 3T3 mouse cells
T2 sequence (P14842 whole entry): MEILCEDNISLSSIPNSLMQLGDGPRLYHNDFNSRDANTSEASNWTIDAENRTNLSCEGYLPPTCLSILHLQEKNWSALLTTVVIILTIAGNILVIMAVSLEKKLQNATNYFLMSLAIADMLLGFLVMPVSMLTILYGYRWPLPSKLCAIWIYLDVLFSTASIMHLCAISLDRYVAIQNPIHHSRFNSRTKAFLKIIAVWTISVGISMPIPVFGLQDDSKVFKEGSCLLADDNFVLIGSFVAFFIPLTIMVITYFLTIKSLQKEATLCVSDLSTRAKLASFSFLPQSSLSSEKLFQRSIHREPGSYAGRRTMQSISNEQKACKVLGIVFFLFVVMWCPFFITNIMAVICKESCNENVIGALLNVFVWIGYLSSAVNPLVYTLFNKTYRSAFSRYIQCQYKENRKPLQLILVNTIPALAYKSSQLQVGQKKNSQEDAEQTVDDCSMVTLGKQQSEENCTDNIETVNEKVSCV
Protocol: Affinity of compounds at the serotonin 5HT2A binding site was determined by competition binding in NIH 3T3 mouse cells transfected with the rat 5HT2A receptor using 125I-DOI. The method was adapted from Leonhardt et al., Molecular Pharmacology, 42, 328-335 (1992). Frozen cell paste was homgenized in 50 mM tris-HCl buffer pH 7.4 containing 2 mM MgCl2 using a Polytron and centrifuged at 45000×g for ten minutes. The resulting pellet was resuspended in fresh ice-cold 50 mM tris-HCl buffer pH 7.4 containing 2 mM MgCl2 using a Polytron™ and centrifuged again at 45000×g for ten minutes. The final pellet was resuspended in 50 mM tris-HCl buffer pH 7.4 containing 2 mM MgCl2 at a concentraion of 5 mg/mL. Wells in a 96 well plate contained 25 μL of 0.7 nM 125I-DOI (70 pM final conc.), and 25 μL of vehicle (assay buffer), blank (10 μM cinanserin), or test compound (10× final volume). […] Filter mats were removed, dried and counted in a Wallac Betaplate counter. Concentration-response curves of the % inhibition of specific binding and log concentration by test compounds were used to determine the IC50 for each compound and the Ki value calculated based on the Cheng-Prusof equation (Ki=IC50/(1+(L/Kd)), where L is the concentration of the radioligand used in the binding assay and the Kd was based on previous saturation studies with the radioligand.

Structure (SMILES): Fc1ccc(F)c(COc2cncc(N3CCNCC3)n2)c1 [Example 1-M, 6′-(2,5-Difluoro-benzyloxy)-3,4,5,6-tetrahydro-2H-[1,2′]bipyrazinyl]
- effects on ICP of concomitant administration with PDE5 inhibitor [1]: beneficial effects on ICP
- number of erectogenic events in a 15 minute test period (conscious male rat; 5 mg/kg s.c.): significantly increased
- number of erectogenic events induced at 120 minutes after dosing (conscious male rat; 120 minutes after dosing): no difference
- proerectile effects in the conscious rat (conscious male rat; conscious rat): induced proerectile effects
- Number of erectogenic events @ 60 min (conscious male rat; conscious rat, 5 mg/kg s.c., 15 minute period, 60 min post injection): 1.5 ± 0.3
- Number of erectogenic events @ 120 min (conscious male rat; conscious rat, 5 mg/kg s.c., 15 minute period, 120 min post injection): 1.3 ± 0.5

- Ki (human 5HT2c receptor): 586 nM
Structure (SMILES): c1ccc(COc2cncc(N3CCNCC3)n2)nc1 [Example 1-AW, 6′-(Pyridin-2-ylmethoxy)-3,4,5,6-tetrahydro-2H-[1,2′]bipyrazinyl hydrochloride salt]

- Ki (rat 5HT2A receptor): 1000 nM
Structure (SMILES): Cc1cccc(CNc2cncc(N3CCNCC3)n2)n1 [Example 4-R, (6-Methyl-pyridin-2-ylmethyl)-(3,4,5,6-tetrahydro-2H-[1,2′]bipyrazinyl-6′-yl)-amine fumarate salt]
